This is an account of results in patent US20120015907A1, “Furopyridine compounds and uses thereof” (NOVARTIS AG, priority 2010, published 2012).

For one assay, the target named is T1, HCV polymerase (Hepatitis C virus genotype 1b, UniProt Q9WMX2).
T1 construct: (His)6 (C)
The experiment in a line: biochemical. Particulars: polymerase assay of Biological Example 1; read-out: NS5B polymerase IC50.

In assay [1] the test system is HCV replicon I389luc-ubi-neo/NS3-3'/ET in ET (Huh-lucubineo-ET) cells. The experiment in a line: Replicon assay (Biological Example 2), luciferase read-out. Format: cell-based. Particulars: Hepatitis C virus, luciferase activity 48 hours after compound addition. Summed up: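 ET cells stably carry the replicon with adaptive mutations E1202G, […] and K1846T. Compound is added 24 h after plating at 0.1 nM–50 μM final (10-point, 3-fold dilutions) with 0.5% DMSO, and luciferase is read 48 h later. EC50 comes from a Hill-equation fit of % inhibition versus no-compound control.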
(In general: In antiviral work, replicon cells carry a viral genome segment that copies itself.)

Some results are limits rather than exact numbers.

With `CNC(=O)c1c(-c2ccc(Cl)cc2)oc2nc(N(CCCS(C)(=O)=O)S(C)(=O)=O)c(C3CC3)cc12` [Example 25.5, 2-(4-chlorophenyl)-5-cyclopropyl-N-methyl-6-(N-(3-(methylsulfonyl)propyl)methylsuIfonamido)furo[2,3-b]pyridine-3-carboxamide], the IC50 on HCV polymerase was 1 nM; in assay [1], at most 100 nM.

Turning to `CCc1cc2c(C(=O)NC)c(-c3ccc(F)cc3)oc2nc1N(CCCCN1CCC[C@H]1C(=O)O)S(C)(=O)=O` [Example 23.98, (S)-1-(4-(N-(5-ethyl-2-(4-fluorophenyl)-3-(methylcarbamoyl)furo[2,3-b]pyridin-6-yl)methylsulfonamido)butyl) pyrrolidine-2-carboxylic acid], the IC50 was 166 nM on HCV polymerase and at least 5000 nM in assay [1].

Take `CNC(=O)c1c(-c2ccc(F)cc2)oc2nc(N(CCCS(C)(=O)=O)S(C)(=O)=O)c(C3CC3)cc12` [Example 24.01]: the concentration for half-maximal inhibition (IC50) is 1 nM on HCV polymerase and at most 100 nM in assay [1].

`CNC(=O)c1c(-c2ccc(C)cc2)oc2nc(N(CCC(C)O)S(C)(=O)=O)c(C3CC3)cc12` (stereo not shown) [Example 26.7, 5-cyclopropyl-6-(N-(3-hydroxybutyl)methylsulfonamido)-N-methyl-2-p-tolylfuro[2,3-b]pyridine-3-carboxamide]: the IC50 was 2 nM on HCV polymerase and at most 100 nM in assay [1].

With `CNC(=O)c1c(-c2ccc(F)cc2)oc2nc3c(cc12)C(C)OCCN3S(C)(=O)=O` (stereo not shown) [Example 36.2, 2-(4-Fluoro-phenyl)-9-methanesulfonyl-5-methyl-5,7,8,9-tetrahydro-1,6-dioxa-9,10-diaza-cyclohepta[f]indene-3-carboxylic acid methylamide], the values for the half-inhibitory concentration (IC50) (at HCV polymerase; in assay [1]) were 35 nM and at most 100 nM, respectively.

Consider `CCc1cc2c(C(=O)NC)c(-c3ccc(F)cc3)oc2nc1N(Cc1cccc(C#N)c1)S(C)(=O)=O` [Example 21.99, 6-(N-(3-cyanobenzyl)methylsulfonamido)-5-ethyl-2-(4-fluorophenyl)-N-methylfuro[2,3-b]pyridine-3-carboxamide], for which the 50% inhibitory concentration (IC50) is 4540 nM at HCV polymerase and at least 5000 nM in assay [1].

In the case of `CNC(=O)c1c(-c2ccc(Oc3ccccc3)cc2)oc2nc(N(C)S(C)(=O)=O)c(C3CC3)cc12` [Example 16, 5-cyclopropyl-N-methyl-6-(N-methylmethylsulfonamido)-2-(4-phenoxyphenyl)furo[2,3-b]pyridine-3-carboxamide], the values for the IC50 (at HCV polymerase; in assay [1]) were 3 nM and at most 100 nM, respectively.

Regarding `CNC(=O)c1c(-c2ccc(F)cc2)oc2nc(N(C)S(C)(=O)=O)c(CCCCS(=O)(=O)CCC(=O)O)cc12` [Example 4.91, 3-(4-(2-(4-fluorophenyl)-3-(methylcarbamoyl)-6-(N-methylmethylsulfonamido)furo[2,3-b]pyridin-5-yl)butylsulfonyl)propanoic acid], the 50% inhibitory concentration (IC50) on HCV polymerase is 10 nM; in assay [1], at least 5000 nM.

On to `CNC(=O)c1c(-c2ccc(F)cc2)oc2nc3c(cc12)[C@@H](C)C[C@H](O)CN3S(C)(=O)=O` (single isomer, unassigned) [Example 34], for which the IC50 at HCV polymerase is 9 nM; in assay [1], at most 100 nM.

For the molecule `CCOC(=O)CCCCN(c1nc2oc(-c3ccc(Cl)cc3)c(C(=O)NC)c2cc1C1CC1)S(C)(=O)=O` [Example 26.3, ethyl 5-(N-(2-(4-chlorophenyl)-5-cyclopropyl-3-(methylcarbamoyl)furo[2,3-b]pyridin-6-yl)methylsulfonamido) pentanoate], the figures for the half-maximal inhibitory concentration (IC50) (at HCV polymerase; in assay [1]) were 3 nM and at most 100 nM, respectively.

Turning to `CCc1cc2c(C(=O)NC)c(-c3ccc(F)cc3)oc2nc1N(C)S(C)(=O)=O` [Example 6, 5-Ethyl-2-(4-fluoro-phenyl)-6-(methanesulfonyl-methyl-amino)-furo[2,3-b]pyridine-3-carboxylic acid methylamide], the half-maximal inhibitory concentration (IC50) was 20 nM on HCV polymerase and at most 100 nM in assay [1].

For `CNC(=O)c1c(-c2ccc(F)cc2)oc2nc(N(CCCCC(=O)O)S(C)(=O)=O)c(I)cc12` [Example 19, 5-{[2-(4-Fluoro-phenyl)-5-iodo-3-methylcarbamoyl-furo[2,3-b]pyridin-6-yl]-methanesulfonyl-amino}-pentanoic acid], the IC50 at HCV polymerase is 9 nM; in assay [1] it was at least 5000 nM.

On to `CNC(=O)c1c(-c2ccc(C)cc2)oc2nc(N(CCCCC(=O)O)S(C)(=O)=O)c(C3CC3)cc12` [Example 25.1, 5-(N-(5-cyclopropyl-3-(methylcarbamoyl)-2-p-tolylfuro[2,3-b]pyridin-6-yl)methylsulfonamido)pentanoic acid], for which the results for the IC50 (at HCV polymerase; in assay [1]) were 2 nM and at most 100 nM, respectively.

In the case of `CNC(=O)c1c(-c2ccc(Oc3ccccc3)cc2)oc2nc(N(CCCCC(=O)O)S(C)(=O)=O)c(C3CC3)cc12` [Example 27, 5-(N-(5-cyclopropyl-3-(methylcarbamoyl)-2-(4-phenoxyphenyl)furo[2,3-b]pyridin-6-yl)methylsulfonamido) pentanoic acid], the IC50 at HCV polymerase was 1 nM; in assay [1] it was at most 100 nM.

On to `CCc1cc2c(C(=O)NC)c(-c3ccc(F)cc3)oc2nc1N(CCCC1CCCS1(=O)=O)S(C)(=O)=O` (racemic) [Example 22.98, 6-{[3-(1,1-Dioxo-tetrahydro-1lambdathiophen-2-yl)-propyl]-methanesulfonyl-amino}-5-ethyl-2-(4-fluoro-phenyl)-furo[2,3-b]pyridine-3-carboxylic acid methylamide], for which the results for the IC50 (on HCV polymerase; in assay [1]) were 11 nM and at most 100 nM, respectively.

Turning to `CCc1cc2c(C(=O)NC)c(-c3ccc(F)cc3)oc2nc1N(CCCS(=O)(=O)C(C)C)S(C)(=O)=O` [Example 23.91, 5-ethyl-2-(4-fluorophenyl)-6-(N-(3-(isopropylsulfonyl)propyl)methylsulfonamido)-N-methylfuro[2,3-b]pyridine-3-carboxamide], the IC50 at HCV polymerase is 18 nM; in assay [1], at most 100 nM.

In the case of `CNC(=O)c1c(-c2ccc(C)cc2)oc2nc(N(C)S(C)(=O)=O)c(C3CC3)cc12` [Example 2.93, 5-cyclopropyl-N-methyl-6-(N-methylmethylsulfonamido)-2-p-tolylfuro[2,3-b]pyridine-3-carboxamide], the half-maximal inhibitory concentration (IC50) is 4 nM on HCV polymerase and at most 100 nM in assay [1].

Take `CNC(=O)c1c(-c2ccc(F)cc2)oc2nc3c(cc12)C(C)CCCN3S(C)(=O)=O` (stereo not shown) [Example 30, 2-(4-Fluoro-phenyl)-9-methanesulfonyl-5-methyl-6,7,8,9-tetrahydro-5H-1-oxa-9,10-diaza-cyclohepta[f]indene-3-carboxylic acid methylamide]: the half-inhibitory concentration (IC50) was 62 nM on HCV polymerase and at most 100 nM in assay [1].

Consider `C=CCCN(CCCN(c1nc2oc(-c3ccc(F)cc3)c(C(=O)NC)c2cc1I)S(C)(=O)=O)S(C)(=O)=O` [Example 23.994, 6-(N-(3-(N-(but-3-enyl)methylsulfonamido)propyl)methylsulfonamido)-2-(4-fluorophenyl)-5-iodo-N-methylfuro[2,3-b]pyridine-3-carboxamide], for which the values for the IC50 (at HCV polymerase; in assay [1]) were 57 nM and at most 100 nM, respectively.

Consider `CNC(=O)c1c(-c2ccc(C)cc2)oc2nc(N(C)S(C)(=O)=O)c(I)cc12` [Example 2.9, 5-iodo-N-methyl-6-(N-methylmethylsulfonamido)-2-p-tolylfuro[2,3-b]pyridine-3-carboxamide], for which the figures for the IC50 (at HCV polymerase; in assay [1]) were 16 nM and at most 100 nM, respectively.

`CNC(=O)c1c(-c2ccc(C)cc2)oc2nc(N(CCCCCC(=O)O)S(C)(=O)=O)c(C3CC3)cc12` [Example 27.9, 6-(N-(5-cyclopropyl-3-(methylcarbamoyl)-2-p-tolylfuro[2,3-b]pyridin-6-yl)methylsulfonamido) hexanoic acid]: the 50% inhibitory concentration (IC50) on HCV polymerase is 2 nM; in assay [1] it was at most 100 nM.

For `CNC(=O)c1c(-c2ccc(C)cc2)oc2nc(N(CCCC(C)(C)C(=O)O)S(C)(=O)=O)c(C3CC3)cc12` [Example 24, 5-[(5-Cyclopropyl-3-methylcarbamoyl-2-p-tolyl-furo[2,3-b]pyridin-6-yl)-methanesulfonyl-amino]-2,2-dimethyl-pentanoic acid], the IC50 is 1 nM at HCV polymerase and at most 100 nM in assay [1].

As for `CNC(=O)c1c(-c2ccc(C)cc2)oc2nc(N(CC[C@@H]3C[C@H]3C(=O)O)S(C)(=O)=O)c(C3CC3)cc12` [Example 28.1, (1R,2S)-2-(2-(N-(5-cyclopropyl-3-(methylcarbamoyl)-2-p-tolylfuro[2,3-b]pyridin-6-yl)methylsulfonamido)ethyl) cyclopropanecarboxylic acid], the 50% inhibitory concentration (IC50) on HCV polymerase was 2 nM; in assay [1], at most 100 nM.

In the case of `CNC(=O)c1c(-c2ccc(F)cc2)oc2nc(N(CCCC(=O)NS(C)(=O)=O)S(C)(=O)=O)c(I)cc12` [Example 18.96, 2-(4-fluorophenyl)-5-iodo-N-methyl-6-(N-(4-(methylsulfonamido)-4-oxobutyl)methylsulfonamido)furo[2,3-b]pyridine-3-carboxamide], the half-inhibitory concentration (IC50) was 34 nM on HCV polymerase and at least 5000 nM in assay [1].

In the case of `CCc1cc2c(C(=O)NC)c(-c3ccc(F)cc3)oc2nc1N(CCCS(=O)(=O)c1ccccc1)S(C)(=O)=O` [Example 21.97, 5-ethyl-2-(4-fluorophenyl)-N-methyl-6-(N-(3-(phenylsulfonyl)propyl)methylsulfonamido)furo[2,3-b]pyridine-3-carboxamide], the results for the 50% inhibitory concentration (IC50) (on HCV polymerase; in assay [1]) were 3 nM and at most 100 nM, respectively.

With `CCc1cc2c(C(=O)NC)c(-c3ccc(F)cc3)oc2nc1N(CCCC1CCCS1(=O)=O)S(C)(=O)=O` (single isomer, unassigned) [Example 22.991, 6-{[3-(1,1-Dioxo-tetrahydro-1lambdathiophen-2-yl)-propyl]-methanesulfonyl-amino}-5-ethyl-2-(4-fluoro-phenyl)-furo[2,3-b]pyridine-3-carboxylic acid methylamide], the concentration for half-maximal inhibition (IC50) at HCV polymerase is 7 nM; in assay [1], at most 100 nM.

A word on the IC50: it is the concentration that inhibits the measured activity by half.
